Assay results: article PMC10001950 (International Journal of Molecular Sciences, 2023)

Legend:
BoNT/A LC [1] = biological target: T1, BoNT/A LC (Clostridium botulinum, UniProt P0DPI0); test: biochemical; format: biochemical
BoNT/A LC [2] = biological target: T1, BoNT/A LC; test: biochemical

T1 sequence (P0DPI0 2-448 limits assumed): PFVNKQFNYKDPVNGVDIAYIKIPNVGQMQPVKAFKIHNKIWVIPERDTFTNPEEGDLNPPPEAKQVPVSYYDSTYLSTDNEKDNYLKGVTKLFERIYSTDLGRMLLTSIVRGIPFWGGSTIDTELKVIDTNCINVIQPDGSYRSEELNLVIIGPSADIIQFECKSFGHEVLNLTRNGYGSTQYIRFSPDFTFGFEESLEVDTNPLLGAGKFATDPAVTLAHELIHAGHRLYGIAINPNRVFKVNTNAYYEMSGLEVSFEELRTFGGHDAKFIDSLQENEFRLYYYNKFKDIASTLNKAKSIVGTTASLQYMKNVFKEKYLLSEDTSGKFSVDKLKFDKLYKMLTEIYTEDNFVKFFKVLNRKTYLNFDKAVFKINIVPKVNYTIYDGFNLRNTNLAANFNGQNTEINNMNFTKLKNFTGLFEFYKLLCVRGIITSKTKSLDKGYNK

## COc1cccc(CNCc2cc(=O)n3cccc(O)c3n2)c1 [Compound 20, 9-Hydroxy-2-(((3-methoxybenzyl)amino)methyl)-4H-pyrido [1,2-a]pyrimidin-4-one]
BoNT/A LC [1]
  IC50: 490 ± 90 nM

## COC(=O)c1ccc2c(c1)N(Cc1cc(=O)n3cccc(O)c3n1)CC2 [Compound 53, Methyl-1-((9-hydroxy-4-oxo-4H-pyrido [1,2-a]pyrimidin-2-yl)methyl)indoline-6-carboxylate]
BoNT/A LC [1]
  IC50: 1100 ± 100 nM

## NCc1cc(=O)n2cccc(O)c2n1 [Compound 13, 2-(Aminomethyl)-9-hydroxy-4H-pyrido [1,2-a]pyrimidin-4-one]
BoNT/A LC [1]
  inhibitory activity against BoNT/A LC (in words): a decrease in inhibitory potency

## O=c1cc(CN2CCc3ccc(-c4ccccc4)cc32)nc2c(O)cccn12 [Compound 56, 9-Hydroxy-2-((6-phenylindolin-1-yl)methyl)-4H-pyrido [1,2-a]pyrimidin-4-one]
BoNT/A LC [1]
  IC50: 600 ± 100 nM

## O=c1cc(CNCc2cccc(-c3ccccc3)c2)nc2c(O)cccn12 [Compound 26, 2-((([1,1′-biphenyl]-3-ylmethyl)amino)methyl)-9-hydroxy-4H-pyrido [1,2-a]pyrimidin-4-one]
BoNT/A LC [1]
  IC50: 600 ± 100 nM

## O=c1cc(CNCc2cccc(F)c2)nc2c(O)cccn12 [Compound 16, 2-(((3-Fluorobenzyl)amino)methyl)-9-hydroxy-4H-pyrido [1,2-a]pyrimidin-4-one]
BoNT/A LC [1]
  IC50: 600 ± 100 nM

## O=c1cc(CN2Cc3ccccc3C2)nc2c(O)cccn12 [Compound 42, 9-Hydroxy-2-(isoindolin-2-ylmethyl)-4H-pyrido [1,2-a]pyrimidin-4-one]
BoNT/A LC [1]
  IC50: 1200 ± 100 nM
  potency compared to 2 (in words): equipotent

## O=c1cc(CN2CCc3cc(-c4ccccc4)ccc32)nc2c(O)cccn12 [Compound 55, 9-Hydroxy-2-((5-phenylindolin-1-yl)methyl)-4H-pyrido [1,2-a]pyrimidin-4-one]
BoNT/A LC [1]
  IC50: 900 ± 300 nM

## CS(=O)(=O)SCCCCCCCc1ccn2c(=O)cc(CNCc3ccc(-c4ccccc4)cc3)nc2c1O [Compound 84]
BoNT/A LC [2]
  Ki: 32000 ± 6000 nM
  kinact: 0.0038 ± 0.0008 s⁻¹
  kinact/KI: 120 ± 30 M⁻¹ s⁻¹

## Cc1ccc(COCc2cc(=O)n3cccc(O)c3n2)cc1 [Compound 39, 9-Hydroxy-2-(((4-methylbenzyl)oxy)methyl)-4H-pyrido [1,2-a]pyrimidin-4-one]
BoNT/A LC [1]
  IC50: 9100 ± 500 nM

## 2-(((4-Chlorobenzyl)amino)methyl)-4H-pyrido [1,2-a]pyrimidin-4-one [Compound 10]
BoNT/A LC [1]
  inhibitory activity against BoNT/A LC (in words): complete ablation of inhibitory activity

## CN(Cc1ccc(-c2ccccc2)cc1)Cc1cc(=O)n2cccc(O)c2n1 [Compound 28, 2-((([1,1′-biphenyl]-4-ylmethyl)(methyl)amino)methyl)-9-hydroxy-4H-pyrido [1,2-a]pyrimidin-4-one]
BoNT/A LC [1]
  IC50: 12000 ± 200 nM

## COc1ccc2c(c1)N(Cc1cc(=O)n3cccc(O)c3n1)CC2 [Compound 51, 9-Hydroxy-2-((6-methoxyindolin-1-yl)methyl)-4H-pyrido [1,2-a]pyrimidin-4-one]
BoNT/A LC [1]
  IC50: > 64000 nM

## COc1cc(COCc2cc(=O)n3cccc(O)c3n2)cc(OC)c1 [Compound 41, 2-(((3,5-Dimethoxybenzyl)oxy)methyl)-9-hydroxy-4H-pyrido [1,2-a]pyrimidin-4-one]
BoNT/A LC [1]
  IC50: 5200 ± 200 nM

## O=c1cc(CN2CCc3ccccc32)nc2c(O)cccn12 [Compound 46, 9-Hydroxy-2-(indolin-1-ylmethyl)-4H-pyrido [1,2-a]pyrimidin-4-one]
BoNT/A LC [1]
  IC50: 2900 ± 100 nM

## Oc1cccc2ccc(CNCc3ccccc3)nc12 [Compound 14, 2-((Benzylamino)methyl)quinolin-8-ol]
BoNT/A LC [1]
  decrease in inhibition: 15 fold

## O=c1cc(COCc2cccc([N+](=O)[O-])c2)nc2c(O)cccn12 [Compound 40, 9-Hydroxy-2-(((3-nitrobenzyl)oxy)methyl)-4H-pyrido [1,2-a]pyrimidin-4-one]
BoNT/A LC [1]
  IC50: 9700 ± 800 nM

## Cc1cccc2c1N(Cc1cc(=O)n3cccc(O)c3n1)CC2 [Compound 50, 9-Hydroxy-2-((7-methylindolin-1-yl)methyl)-4H-pyrido [1,2-a]pyrimidin-4-one]
BoNT/A LC [1]
  IC50: 24000 ± 14000 nM

## COC(=O)c1ccc2c(c1)CCN2Cc1cc(=O)n2cccc(O)c2n1 [Compound 52, Methyl1-((9-hydroxy-4-oxo-4H-pyrido [1,2-a]pyrimidin-2-yl)methyl)indoline-5-carboxylate]
BoNT/A LC [1]
  IC50: 1200 ± 700 nM

## O=c1cc(CN2Cc3ccc(Cl)cc3C2)nc2c(O)cccn12 [Compound 43, 2-((5-Chloroisoindolin-2-yl)methyl)-9-hydroxy-4H-pyrido [1,2-a]pyrimidin-4-one]
BoNT/A LC [1]
  IC50: 500 ± 200 nM

## O=c1cc(COCc2cccc(O)c2)nc2c(O)cccn12 [Compound 37, 9-Hydroxy-2-(((3-hydroxybenzyl)oxy)methyl)-4H-pyrido [1,2-a]pyrimidin-4-one]
BoNT/A LC [1]
  IC50: 26000 ± 2000 nM

## COC(=O)c1cccc(CNCc2cc(=O)n3cccc(O)c3n2)c1 [Compound 24, Methyl 3-((((9-hydroxy-4-oxo-4H-pyrido [1,2-a]pyrimidin-2-yl)methyl)amino)methyl) benzoate]
BoNT/A LC [1]
  IC50: 410 ± 80 nM

## O=c1cc(CN2Cc3ccc(Br)cc3C2)nc2c(O)cccn12 [Compound 44, 2-((5-Bromoisoindolin-2-yl)methyl)-9-hydroxy-4H-pyrido [1,2-a]pyrimidin-4-one]
BoNT/A LC [1]
  IC50: 400 ± 20 nM

## CN(C)Cc1cc(=O)n2cccc(O)c2n1 [Compound 15, 2-((Dimethylamino)methyl)-9-hydroxy-4H-pyrido [1,2-a]pyrimidin-4-one]
BoNT/A LC [1]
  IC50: > 64000 nM

## COC(=O)c1ccc(CNCc2cc(=O)n3cccc(O)c3n2)cc1 [Compound 25, Methyl 4-((((9-hydroxy-4-oxo-4H-pyrido [1,2-a]pyrimidin-2-yl)methyl)amino)methyl) benzoate]
BoNT/A LC [1]
  IC50: > 64000 nM

## O=c1cc(CN2Cc3ccc(-c4ccccc4)cc3C2)nc2c(O)cccn12 [Compound 45, 9-Hydroxy-2-((5-phenylisoindolin-2-yl)methyl)-4H-pyrido [1,2-a]pyrimidin-4-one]
BoNT/A LC [1]
  IC50: 700 ± 100 nM

## Cc1cccc(COCc2cc(=O)n3cccc(O)c3n2)c1 [Compound 38, 9-Hydroxy-2-(((3-methylbenzyl)oxy)methyl)-4H-pyrido [1,2-a]pyrimidin-4-one]
BoNT/A LC [1]
  IC50: 6600 ± 500 nM

## O=c1cc(CCCc2ccccc2)nc2c(O)cccn12 [Compound 7, 9-Hydroxy-2-(3-phenylpropyl)-4H-pyrido [1,2-a]pyrimidin-4-one]
BoNT/A LC [1]
  inhibitory activity against BoNT/A LC (in words): drastic decrease in inhibitory activity

## O=c1cc(COCc2ccccc2Cl)nc2c(O)cccn12 [Compound 34, 2-(((2-Chlorobenzyl)oxy)methyl)-9-hydroxy-4H-pyrido [1,2-a]pyrimidin-4-one]
BoNT/A LC [1]
  IC50: 9000 ± 2000 nM

## O=c1cc(CNCc2ccc(F)cc2)nc2c(O)cccn12 [Compound 17, 2-(((4-Fluorobenzyl)amino)methyl)-9-hydroxy-4H-pyrido [1,2-a]pyrimidin-4-one]
BoNT/A LC [1]
  IC50: 1200 ± 200 nM

## CC(O)c1cc2n(n1)CCN(Cc1cc(=O)n3cccc(O)c3n1)C2 (stereo not shown) [Compound 4]
BoNT/A LC [1]
  IC50: 7000 ± 1000 nM

## O=c1cc(CN2CCc3cc(Br)ccc32)nc2c(O)cccn12 [Compound 48, 2-((5-Bromoindolin-1-yl)methyl)-9-hydroxy-4H-pyrido [1,2-a]pyrimidin-4-one]
BoNT/A LC [1]
  IC50: 700 ± 100 nM

## Cc1cccc(CNCc2cc(=O)n3cccc(O)c3n2)c1 [Compound 22, 9-Hydroxy-2-(((3-methylbenzyl)amino)methyl)-4H-pyrido [1,2-a]pyrimidin-4-one]
BoNT/A LC [1]
  IC50: 500 ± 100 nM

## O=c1cc(CN2CCc3ccc(Br)cc32)nc2c(O)cccn12 [Compound 49, 2-((6-Bromoindolin-1-yl)methyl)-9-hydroxy-4H-pyrido [1,2-a]pyrimidin-4-one]
BoNT/A LC [1]
  IC50: 700 ± 50 nM

## O=c1cc(CNCCc2ccccc2)nc2c(O)cccn12 [Compound 29, 9-Hydroxy-2-((phenethylamino)methyl)-4H-pyrido [1,2-a]pyrimidin-4-one]
BoNT/A LC [1]
  IC50: 10000 ± 1000 nM

## O=c1cc(COCc2ccc(F)cc2)nc2c(O)cccn12 [Compound 33, 2-(((4-Fluorobenzyl)oxy)methyl)-9-hydroxy-4H-pyrido [1,2-a]pyrimidin-4-one]
BoNT/A LC [1]
  IC50: 15000 ± 1000 nM

## O=c1cc(COCc2ccccc2)nc2c(O)cccn12 [Compound 30, 2-((Benzyloxy)methyl)-9-hydroxy-4H-pyrido [1,2-a]pyrimidin-4-one]
BoNT/A LC [1]
  IC50: 2500 ± 300 nM

## O=c1cc(COCc2ccc(Cl)cc2)nc2c(O)cccn12 [Compound 36, 2-(((4-Chlorobenzyl)oxy)methyl)-9-hydroxy-4H-pyrido [1,2-a]pyrimidin-4-one]
BoNT/A LC [1]
  IC50: 4130 ± 90 nM

## O=c1cc(COCc2ccccc2F)nc2c(O)cccn12 [Compound 31, 2-(((2-Fluorobenzyl)oxy)methyl)-9-hydroxy-4H-pyrido [1,2-a]pyrimidin-4-one]
BoNT/A LC [1]
  IC50: 18000 ± 2000 nM

## CCc1cc(=O)n2cccc(O)c2n1 [Compound 6, 2-Ethyl-9-hydroxy-4H-pyrido [1,2-a]pyrimidin-4-one]
BoNT/A LC [1]
  inhibitory activity against BoNT/A LC (in words): a decrease in inhibitory potency

## Cc1ccc(CNCc2cc(=O)n3cccc(O)c3n2)cc1 [Compound 23, 9-Hydroxy-2-(((4-methylbenzyl)amino)methyl)-4H-pyrido [1,2-a]pyrimidin-4-one]
BoNT/A LC [1]
  IC50: 1400 ± 900 nM

## O=C(O)[C@@H]1CN(Cc2cc(=O)n3cccc(O)c3n2)C[C@H]1c1ccccn1 [Compound 3]
BoNT/A LC [1]
  IC50: 1300 ± 200 nM
  fold more potent than initial lead 1: approximately seven-fold

## O=c1cc(CNCc2ccc(Cl)cc2)nc2c(O)cccn12 [Compound 19, 2-(((4-Chlorobenzyl)amino)methyl)-9-hydroxy-4H-pyrido [1,2-a]pyrimidin-4-one]
BoNT/A LC [1]
  IC50: 1100 ± 100 nM

## COc1ccc(CNCc2cc(=O)n3cccc(O)c3n2)cc1 [Compound 21, 9-Hydroxy-2-(((4-methoxybenzyl)amino)methyl)-4H-pyrido [1,2-a]pyrimidin-4-one]
BoNT/A LC [1]
  IC50: 1900 ± 200 nM

## CS(=O)(=O)SCCCCCCc1ccn2c(=O)cc(CNCc3ccc(-c4ccccc4)cc3)nc2c1O [Compound 83, S-(6-(2-((([1,1′-biphenyl]-4-ylmethyl)amino)methyl)-9-hydroxy-4-oxo-4H-pyrido [1,2-a]pyrimidin-8-yl)hexyl) methanesulfonothioate]
BoNT/A LC [2]
  Ki: 3400 ± 500 nM
  kinact: 0.0028 ± 0.0002 s⁻¹
  kinact/KI: 820 ± 30 M⁻¹ s⁻¹

## CCOc1cccn2c(=O)cc(CNCc3ccccc3)nc12 [Compound 11, 2-((Benzylamino)methyl)-9-ethoxy-4H-pyrido [1,2-a]pyrimidin-4-one]
BoNT/A LC [1]
  inhibitory activity against BoNT/A LC (in words): had a similar effect
